Measured values from ChEMBL document CHEMBL1201862, “PubChem BioAssay data set” (2004).
Activity calls are given as the source filed them.

How the values were obtained:
[1] = target: Serine/threonine-protein kinase D2 (Homo sapiens, UniProt Q9BZL6); assay type: functional;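 also: measured against PRKD2 as one member of a kinome-wide kinase profiling panel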
[2] = target: Ribosomal protein S6 kinase beta-1 (Homo sapiens, UniProt P23443); assay type: functional;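 also: measured as one member of a kinome-wide profiling panel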
[3] = target: Calcium/calmodulin-dependent protein kinase type II subunit gamma (Homo sapiens, UniProt Q13555); assay type: functional
[4] = target: Rho-associated protein kinase 2 (Homo sapiens, UniProt O75116); assay type: functional
[5] = target: MAP kinase-activated protein kinase 5 (Homo sapiens, UniProt Q8IW41); assay type: functional;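 also: measured as one member of a kinome panel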
[6] = target: Calcium/calmodulin-dependent protein kinase type II subunit delta (Homo sapiens, UniProt Q13557); assay type: functional
[7] = target: Proto-oncogene tyrosine-protein kinase ROS (Homo sapiens, UniProt P08922); assay type: functional;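 also: ROS1 tested as one member of a kinome-wide kinase panel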
[8] = target: Proto-oncogene tyrosine-protein kinase Src (Homo sapiens, UniProt P12931); assay type: functional;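 also: SRC entry within a kinome-wide kinase profiling panel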
[9] = target: Maternal embryonic leucine zipper kinase (Homo sapiens, UniProt Q14680); assay type: functional
[10] = target: Tyrosine-protein kinase Fer (Homo sapiens, UniProt P16591); assay type: functional;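 also: FER tested as one member of a kinome panel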
[11] = target: 3-phosphoinositide-dependent protein kinase 1 (Homo sapiens, UniProt O15530); assay type: functional;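 also: value comes from the Navigating the Kinome panel, PDPK1 member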
[12] = target: Receptor tyrosine-protein kinase erbB-4 (Homo sapiens, UniProt Q15303); assay type: functional;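 also: ERBB4 member of a kinome-wide kinase profiling panel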
[13] = target: T1, Histone-lysine N-methyltransferase NSD2 (Homo sapiens, UniProt O96028); assay type: biochemical
T1 sequence (O96028 whole entry): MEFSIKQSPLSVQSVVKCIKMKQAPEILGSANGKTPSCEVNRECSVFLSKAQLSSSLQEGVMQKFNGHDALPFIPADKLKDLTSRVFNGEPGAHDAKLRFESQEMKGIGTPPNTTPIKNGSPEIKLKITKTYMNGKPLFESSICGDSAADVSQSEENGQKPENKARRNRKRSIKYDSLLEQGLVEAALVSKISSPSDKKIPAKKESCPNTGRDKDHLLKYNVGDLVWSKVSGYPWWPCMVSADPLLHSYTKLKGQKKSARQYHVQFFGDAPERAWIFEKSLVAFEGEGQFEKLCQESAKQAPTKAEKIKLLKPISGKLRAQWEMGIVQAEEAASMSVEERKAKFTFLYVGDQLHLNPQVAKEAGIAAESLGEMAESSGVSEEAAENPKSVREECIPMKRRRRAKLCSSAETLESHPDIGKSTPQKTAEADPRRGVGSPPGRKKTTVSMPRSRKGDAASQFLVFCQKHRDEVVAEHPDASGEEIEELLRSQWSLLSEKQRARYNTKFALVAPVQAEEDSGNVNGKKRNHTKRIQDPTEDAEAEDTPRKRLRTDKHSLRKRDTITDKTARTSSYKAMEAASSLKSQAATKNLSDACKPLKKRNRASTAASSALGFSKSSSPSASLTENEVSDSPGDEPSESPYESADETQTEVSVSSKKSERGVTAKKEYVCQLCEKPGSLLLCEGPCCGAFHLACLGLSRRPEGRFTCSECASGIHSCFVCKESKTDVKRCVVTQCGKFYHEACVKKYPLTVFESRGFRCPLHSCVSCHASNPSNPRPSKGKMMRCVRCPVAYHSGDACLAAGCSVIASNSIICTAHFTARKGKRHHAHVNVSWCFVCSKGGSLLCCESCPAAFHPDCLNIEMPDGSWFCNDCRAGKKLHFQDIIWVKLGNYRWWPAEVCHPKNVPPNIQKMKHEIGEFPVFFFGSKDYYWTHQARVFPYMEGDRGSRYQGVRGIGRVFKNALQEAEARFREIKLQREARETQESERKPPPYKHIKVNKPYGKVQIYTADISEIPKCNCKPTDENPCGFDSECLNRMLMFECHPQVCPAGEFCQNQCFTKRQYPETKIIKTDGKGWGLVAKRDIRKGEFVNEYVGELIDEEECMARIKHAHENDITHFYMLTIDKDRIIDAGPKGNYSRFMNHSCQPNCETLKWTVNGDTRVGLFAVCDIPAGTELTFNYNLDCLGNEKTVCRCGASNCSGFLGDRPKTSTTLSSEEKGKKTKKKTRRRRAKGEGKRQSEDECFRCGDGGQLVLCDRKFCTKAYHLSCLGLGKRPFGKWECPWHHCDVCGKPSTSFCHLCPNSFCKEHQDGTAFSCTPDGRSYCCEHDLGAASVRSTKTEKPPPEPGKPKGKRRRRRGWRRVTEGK

[14] = target: T2, Replicative DNA helicase DnaB (Mycobacterium tuberculosis, UniProt P9WMR3); test: DnaB intein splicing inhibitors, dose response, biochemical, cell-free fluorescence (AID 449749); assay type: functional
T2 sequence (P9WMR3 whole entry): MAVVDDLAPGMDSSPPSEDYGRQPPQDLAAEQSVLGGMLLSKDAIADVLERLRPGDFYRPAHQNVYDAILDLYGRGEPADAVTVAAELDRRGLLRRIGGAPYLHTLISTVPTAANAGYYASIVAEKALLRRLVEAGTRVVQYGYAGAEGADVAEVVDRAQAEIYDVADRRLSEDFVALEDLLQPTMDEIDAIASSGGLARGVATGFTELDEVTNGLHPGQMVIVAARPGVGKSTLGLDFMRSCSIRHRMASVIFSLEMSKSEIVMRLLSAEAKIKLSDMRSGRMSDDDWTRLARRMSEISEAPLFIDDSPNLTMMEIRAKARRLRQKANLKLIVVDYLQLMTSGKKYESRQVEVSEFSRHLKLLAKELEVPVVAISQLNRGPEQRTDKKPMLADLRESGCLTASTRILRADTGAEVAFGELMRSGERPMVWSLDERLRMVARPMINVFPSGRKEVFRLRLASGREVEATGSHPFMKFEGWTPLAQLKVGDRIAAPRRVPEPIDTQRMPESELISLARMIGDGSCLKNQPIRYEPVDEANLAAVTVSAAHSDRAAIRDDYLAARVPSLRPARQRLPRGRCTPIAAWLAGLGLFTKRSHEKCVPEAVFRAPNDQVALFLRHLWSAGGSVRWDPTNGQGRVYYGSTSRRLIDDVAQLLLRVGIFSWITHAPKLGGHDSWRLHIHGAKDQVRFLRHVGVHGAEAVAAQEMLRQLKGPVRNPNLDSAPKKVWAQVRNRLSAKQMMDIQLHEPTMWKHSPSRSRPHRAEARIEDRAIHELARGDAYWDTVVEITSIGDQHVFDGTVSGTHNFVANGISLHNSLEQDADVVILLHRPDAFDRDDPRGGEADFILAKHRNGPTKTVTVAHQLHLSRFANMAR

Chain of Calcium/calmodulin-dependent protein kinase type II subunit delta (Q13557 whole entry): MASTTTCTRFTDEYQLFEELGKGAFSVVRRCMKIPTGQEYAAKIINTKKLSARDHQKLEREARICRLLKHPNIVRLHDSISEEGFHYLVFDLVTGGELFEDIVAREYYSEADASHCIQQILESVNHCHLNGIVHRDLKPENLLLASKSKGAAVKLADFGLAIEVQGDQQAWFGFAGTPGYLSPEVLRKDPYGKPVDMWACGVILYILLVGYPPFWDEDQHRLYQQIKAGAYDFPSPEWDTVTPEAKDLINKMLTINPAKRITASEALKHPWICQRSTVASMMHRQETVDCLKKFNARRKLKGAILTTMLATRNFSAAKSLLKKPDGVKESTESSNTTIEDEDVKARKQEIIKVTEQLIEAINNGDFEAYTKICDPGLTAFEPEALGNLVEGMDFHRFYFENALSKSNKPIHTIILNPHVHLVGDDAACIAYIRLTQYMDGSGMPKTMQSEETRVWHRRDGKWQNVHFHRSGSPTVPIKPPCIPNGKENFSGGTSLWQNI
Chain of Calcium/calmodulin-dependent protein kinase type II subunit gamma (Q13555 whole entry): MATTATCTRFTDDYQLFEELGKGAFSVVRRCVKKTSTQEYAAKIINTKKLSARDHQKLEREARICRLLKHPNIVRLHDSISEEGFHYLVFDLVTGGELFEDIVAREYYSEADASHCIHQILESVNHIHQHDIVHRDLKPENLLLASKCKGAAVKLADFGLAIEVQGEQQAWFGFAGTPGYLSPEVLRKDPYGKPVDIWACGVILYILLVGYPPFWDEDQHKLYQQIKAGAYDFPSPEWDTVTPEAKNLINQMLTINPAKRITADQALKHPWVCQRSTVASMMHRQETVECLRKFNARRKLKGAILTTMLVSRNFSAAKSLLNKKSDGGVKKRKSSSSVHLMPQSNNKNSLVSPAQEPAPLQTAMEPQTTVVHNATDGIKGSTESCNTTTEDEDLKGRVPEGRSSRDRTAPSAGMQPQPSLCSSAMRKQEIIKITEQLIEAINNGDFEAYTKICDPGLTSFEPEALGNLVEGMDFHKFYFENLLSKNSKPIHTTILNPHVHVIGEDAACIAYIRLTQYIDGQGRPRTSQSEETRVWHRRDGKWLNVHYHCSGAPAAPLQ
Chain of Serine/threonine-protein kinase D2 (Q9BZL6 whole entry): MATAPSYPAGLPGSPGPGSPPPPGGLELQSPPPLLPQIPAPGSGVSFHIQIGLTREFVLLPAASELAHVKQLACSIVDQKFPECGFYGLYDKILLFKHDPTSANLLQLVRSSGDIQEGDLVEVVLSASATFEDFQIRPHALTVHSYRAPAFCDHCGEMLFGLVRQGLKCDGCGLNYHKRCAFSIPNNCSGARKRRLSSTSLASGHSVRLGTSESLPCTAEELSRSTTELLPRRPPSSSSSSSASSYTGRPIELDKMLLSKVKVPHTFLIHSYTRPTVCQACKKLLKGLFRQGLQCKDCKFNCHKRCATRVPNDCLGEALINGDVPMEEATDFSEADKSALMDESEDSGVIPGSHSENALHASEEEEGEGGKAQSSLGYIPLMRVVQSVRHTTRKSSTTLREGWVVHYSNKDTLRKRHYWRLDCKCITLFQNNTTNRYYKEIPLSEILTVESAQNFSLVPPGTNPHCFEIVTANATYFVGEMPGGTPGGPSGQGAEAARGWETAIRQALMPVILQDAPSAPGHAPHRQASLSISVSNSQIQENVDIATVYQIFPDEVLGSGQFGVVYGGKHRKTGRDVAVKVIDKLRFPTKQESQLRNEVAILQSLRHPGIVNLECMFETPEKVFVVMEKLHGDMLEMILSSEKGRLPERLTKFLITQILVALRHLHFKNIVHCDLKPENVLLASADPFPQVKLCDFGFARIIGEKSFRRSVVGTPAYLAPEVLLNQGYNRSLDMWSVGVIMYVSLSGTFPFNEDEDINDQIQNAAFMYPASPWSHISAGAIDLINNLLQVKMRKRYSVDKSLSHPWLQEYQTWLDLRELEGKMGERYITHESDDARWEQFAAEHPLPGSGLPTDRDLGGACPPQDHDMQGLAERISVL
Chain of Maternal embryonic leucine zipper kinase (Q14680 whole entry): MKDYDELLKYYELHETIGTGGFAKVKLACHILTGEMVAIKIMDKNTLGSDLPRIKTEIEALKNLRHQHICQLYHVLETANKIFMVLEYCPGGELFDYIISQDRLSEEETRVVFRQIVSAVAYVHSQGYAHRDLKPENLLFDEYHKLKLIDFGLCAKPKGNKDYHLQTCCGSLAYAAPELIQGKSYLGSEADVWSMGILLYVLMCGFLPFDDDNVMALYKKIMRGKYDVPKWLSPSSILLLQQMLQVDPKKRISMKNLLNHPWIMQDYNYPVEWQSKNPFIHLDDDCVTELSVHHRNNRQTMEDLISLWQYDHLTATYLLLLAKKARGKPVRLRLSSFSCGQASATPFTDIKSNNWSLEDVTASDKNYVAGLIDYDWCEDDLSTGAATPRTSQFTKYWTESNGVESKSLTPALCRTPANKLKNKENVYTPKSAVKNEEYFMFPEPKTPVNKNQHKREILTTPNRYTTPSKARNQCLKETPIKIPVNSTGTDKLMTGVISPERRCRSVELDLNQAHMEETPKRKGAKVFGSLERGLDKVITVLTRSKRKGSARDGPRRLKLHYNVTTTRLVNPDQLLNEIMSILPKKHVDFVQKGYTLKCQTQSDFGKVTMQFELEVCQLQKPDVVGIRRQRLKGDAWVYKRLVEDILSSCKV
Chain of Receptor tyrosine-protein kinase erbB-4 (Q15303 whole entry): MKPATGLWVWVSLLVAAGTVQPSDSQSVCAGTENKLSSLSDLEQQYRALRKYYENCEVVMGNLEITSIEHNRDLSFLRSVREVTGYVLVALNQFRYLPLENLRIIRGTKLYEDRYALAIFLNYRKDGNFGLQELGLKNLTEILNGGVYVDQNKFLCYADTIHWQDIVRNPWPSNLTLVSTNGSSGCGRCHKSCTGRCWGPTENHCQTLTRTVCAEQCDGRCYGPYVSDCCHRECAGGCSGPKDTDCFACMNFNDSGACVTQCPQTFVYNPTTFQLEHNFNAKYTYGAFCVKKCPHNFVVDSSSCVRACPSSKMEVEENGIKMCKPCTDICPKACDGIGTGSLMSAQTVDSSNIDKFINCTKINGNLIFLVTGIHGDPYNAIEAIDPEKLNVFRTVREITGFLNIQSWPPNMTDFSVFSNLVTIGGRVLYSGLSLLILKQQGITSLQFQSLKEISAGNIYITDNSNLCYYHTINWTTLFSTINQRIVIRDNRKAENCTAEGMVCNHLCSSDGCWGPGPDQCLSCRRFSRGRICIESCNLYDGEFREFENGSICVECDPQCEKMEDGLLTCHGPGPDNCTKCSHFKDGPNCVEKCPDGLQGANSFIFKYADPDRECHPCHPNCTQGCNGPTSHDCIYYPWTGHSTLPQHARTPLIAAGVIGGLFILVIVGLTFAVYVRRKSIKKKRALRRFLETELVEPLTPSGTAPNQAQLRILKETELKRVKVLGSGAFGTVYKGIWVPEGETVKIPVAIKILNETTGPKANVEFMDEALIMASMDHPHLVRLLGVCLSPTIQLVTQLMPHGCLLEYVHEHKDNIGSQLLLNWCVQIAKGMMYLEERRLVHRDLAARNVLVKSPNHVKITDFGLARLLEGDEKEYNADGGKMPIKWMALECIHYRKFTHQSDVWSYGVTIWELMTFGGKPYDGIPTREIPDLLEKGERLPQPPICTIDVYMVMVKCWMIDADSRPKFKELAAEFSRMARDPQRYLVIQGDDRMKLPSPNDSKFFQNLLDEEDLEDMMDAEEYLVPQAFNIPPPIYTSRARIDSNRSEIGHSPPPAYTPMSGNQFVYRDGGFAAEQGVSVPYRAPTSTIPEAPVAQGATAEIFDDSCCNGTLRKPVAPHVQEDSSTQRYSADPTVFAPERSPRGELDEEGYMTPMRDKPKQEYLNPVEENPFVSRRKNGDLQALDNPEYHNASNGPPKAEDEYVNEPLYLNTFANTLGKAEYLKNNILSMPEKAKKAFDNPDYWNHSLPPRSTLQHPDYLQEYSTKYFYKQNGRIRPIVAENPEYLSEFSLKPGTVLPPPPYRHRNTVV
Chain of 3-phosphoinositide-dependent protein kinase 1 (O15530 whole entry): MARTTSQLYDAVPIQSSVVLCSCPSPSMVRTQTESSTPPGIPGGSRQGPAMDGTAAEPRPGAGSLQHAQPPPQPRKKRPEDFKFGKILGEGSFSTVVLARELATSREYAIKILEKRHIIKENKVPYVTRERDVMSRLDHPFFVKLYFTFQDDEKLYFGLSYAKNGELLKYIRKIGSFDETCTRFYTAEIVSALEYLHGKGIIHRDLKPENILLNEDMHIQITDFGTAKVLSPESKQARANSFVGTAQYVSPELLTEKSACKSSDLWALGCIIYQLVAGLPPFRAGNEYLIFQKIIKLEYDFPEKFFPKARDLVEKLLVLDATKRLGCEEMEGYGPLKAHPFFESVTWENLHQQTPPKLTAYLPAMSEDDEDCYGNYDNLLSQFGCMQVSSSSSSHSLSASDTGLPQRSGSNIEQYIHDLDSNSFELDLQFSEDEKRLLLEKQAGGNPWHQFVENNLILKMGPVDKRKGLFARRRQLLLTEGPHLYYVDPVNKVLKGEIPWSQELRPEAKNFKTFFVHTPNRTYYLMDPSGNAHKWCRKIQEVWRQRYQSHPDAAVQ
Chain of MAP kinase-activated protein kinase 5 (Q8IW41 whole entry): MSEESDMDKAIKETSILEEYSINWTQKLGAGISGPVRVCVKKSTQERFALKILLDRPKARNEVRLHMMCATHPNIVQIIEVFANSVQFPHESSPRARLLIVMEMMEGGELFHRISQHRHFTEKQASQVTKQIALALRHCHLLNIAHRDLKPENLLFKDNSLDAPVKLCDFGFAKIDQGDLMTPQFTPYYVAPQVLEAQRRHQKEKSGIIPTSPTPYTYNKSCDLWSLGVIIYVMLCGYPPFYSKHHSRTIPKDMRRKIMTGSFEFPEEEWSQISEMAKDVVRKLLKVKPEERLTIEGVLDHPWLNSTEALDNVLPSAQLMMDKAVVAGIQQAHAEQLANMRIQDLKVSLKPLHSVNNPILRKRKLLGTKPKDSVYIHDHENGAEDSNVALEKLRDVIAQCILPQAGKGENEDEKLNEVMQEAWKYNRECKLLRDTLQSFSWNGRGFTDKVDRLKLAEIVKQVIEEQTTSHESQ

Q: Which Ki [1] does the source give for CN1CCC(c2c(O)cc(O)c3c(=O)cc(-c4ccccc4Cl)oc23)C(O)C1 (stereo unspecified) here?
A: 1260 nM (active)

Q: What about the Ki [2] of the same compound?
A: > 6310 nM (inactive)

Q: And the Ki [3]?
A: 1000 nM (active)

Q: What about the pKi [3] of the same compound?
A: 6

Q: And the Ki [4]?
A: > 6310 nM (inactive)

Q: And the Ki [5]?
A: > 1580 nM (inactive)

Q: And the Ki [6]?
A: 2000 nM (active)

Q: And the pKi [6]?
A: 5.7

Q: And the Ki [7]?
A: 251 nM (active)

Q: What about the Ki [8] of the same compound?
A: > 2000 nM (inactive)

Q: What about the Ki [9] of the same compound?
A: > 2000 nM (inactive)

Q: What about the Ki [10] of the same compound?
A: > 1580 nM (inactive)

Q: What about the Ki [11] of the same compound?
A: > 3980 nM (inactive)

Q: And the Ki [12]?
A: > 3980 nM (inactive)

Q: How did the AC50 [13] turn out when CC(/C=C1\SC(=S)N(NS(=O)(=O)c2ccc(C)cc2)C1=O)=C\c1ccccc1 was run?
A: 9980 nM (active)

Q: Which AC50 [14] does the source give for Cc1ccc(NC2=C(NCCO)C(=O)c3ccccc3C2=O)cc1 here?
A: 40300 nM (active)
